The target of test [1] is T1, tau protein in human tau-A152T neurons (Homo sapiens, UniProt P10636, A469T).
T1 construct: degrade tau protein in cultured human differentiated frontotemporal lobar dementia (FTD) neurons; endogenous in cells; host or cells: human differentiated FTD neurons, tau-A152T, 6-week differentiated
The test is described as follows: Dose-effect on tau in tau-A152T neurons (Western blot, total tau TAU5 and P-Tau S396). In kind it is cell-based. The following applies: human tau-A152T neurons (6-week differentiated), 24 hours treatment, 1 μM or 10 μM. On the procedure: (§1) Assays were performed according to protocols described in Silva et al., eLife, 8:e45457 (2019). Each of the bispecific compounds, along with the control parental scaffold, was evaluated for the ability to degrade tau protein in cultured human differentiated frontotemporal lobar dementia (FTD) neurons.
(§2) For each condition, 1 well of differentiated neuronal cells (6 well-plate) was washed and collected in PBS, pelleted and lysed in radioimmunoprecipitation assay (RIPA) buffer (Boston BioProducts) with 2% SDS (Sigma), protease inhibitors (Roche cOmplete™ Mini tablets), and phosphatase inhibitors (Sigma), followed by sonication in a water sonicator (Bransonic® Ultrasonic Baths, Thomas Scientific) for 5 minutes, and centrifugation at 20,000 g for 15 minutes. Supernatants were transferred to new tubes, total protein concentration was quantified with the Pierce™ BCA Protein Assay Kit (Thermo Scientific™), and SDS-PAGE gels were loaded with 10 μg total protein per well (pre-boiled samples). Western blots were performed with the Novex NuPAGE™ SDS-PAGE Gel System (Invitrogen™). All samples were resolved in 7% Tris-Acetate gels with Tris-Acetate running buffer (Invitrogen™). Blots were probed with antibodies against total tau (TAU5) and phosphorylated tau (Ser396), along with (3-actin as a loading control; followed by corresponding HRP-linked secondary antibodies (Cell Signaling Technology®), and SuperSignal™ West Pico Chemiluminescent Substrate (Thermo Scientific™) detection. Membranes were exposed to autoradiographic film (LabScientific) and films were scanned using an Epson® Perfection V800 Photo Scanner. Protein band intensities (pixel mean intensity) were quantified using Adobe Photoshop® CS5 Histogram function.
(§3) The vehicle alone (DMSO) had no effect on tau. However, varying degrading activity was observed among the specific compounds with overall similar relative levels of degrading activity between tau-A152T neurons and tau-P301L neurons. Bispecific compounds were added at the doses indicated (either 1 μM or 10 μM).

The target in test [2] is T2, tau protein in human tau-P301L neurons (Homo sapiens, UniProt P10636, P618L).
T2 construct: degrade tau protein in cultured human differentiated frontotemporal lobar dementia (FTD) neurons; endogenous in cells; host or cells: human differentiated FTD neurons, tau-P301L, 6-week differentiated
Description: Dose-effect on tau in tau-P301L neurons (Western blot, total tau TAU5 and P-Tau S396). Particulars: human tau-P301L neurons (6-week differentiated), 24 hours treatment, 1 μM or 10 μM. In kind it is cell-based. The procedure:
as §1, §2, §3
In general terms: Immunoblotting shows a protein as a band on a membrane.

This note sets out measurements from patent US20230133538A1, “TARGETED DEGRADERS OF ABERRANT TAU BASED ON THE PET TRACER PBB3” (DANA-FARBER CANCER INSTITUTE, INC., priority 2020, published 2023).

T2 sequence (P10636 1-441 isoform P10636-8 P301L): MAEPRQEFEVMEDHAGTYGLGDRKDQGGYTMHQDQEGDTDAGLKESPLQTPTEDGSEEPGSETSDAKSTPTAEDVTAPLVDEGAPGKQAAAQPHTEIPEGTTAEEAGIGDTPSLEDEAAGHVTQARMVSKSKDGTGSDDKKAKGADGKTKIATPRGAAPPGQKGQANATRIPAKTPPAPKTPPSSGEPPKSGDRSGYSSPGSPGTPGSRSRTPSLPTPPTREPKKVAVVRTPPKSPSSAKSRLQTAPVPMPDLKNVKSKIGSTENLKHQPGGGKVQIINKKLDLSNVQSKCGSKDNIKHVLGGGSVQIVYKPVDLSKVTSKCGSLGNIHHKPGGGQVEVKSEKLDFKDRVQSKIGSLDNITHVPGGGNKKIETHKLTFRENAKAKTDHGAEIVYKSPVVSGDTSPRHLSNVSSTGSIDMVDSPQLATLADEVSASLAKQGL
T1 sequence (P10636 1-441 isoform P10636-8 A152T): as the sequence (P10636 1-441 isoform P10636-8 P301L) above, with A152T, L301P counted along it

`Nc1cccc2c1CN(C1CCC(=O)NC1=O)C2=O` (stereo not drawn) [Lenalidomide, reference compound]: the “degradation of hyperphosphorylated tau and/or total tau” value (shortened to “degradation”) in test [1] and in test [2] was “no effect on tau levels” throughout.

In the case of `CNc1ccc(/C=C/C=C/c2nc3ccc(OCCCCCCNC(=O)COc4cccc5c4C(=O)N(C4CCC(=O)NC4=O)C5=O)cc3s2)cn1` (stereo not drawn) [compound 2, 2-(2-(2,6-dioxopiperidin-3-yl)-1,3-dioxoisoindolin-4-yloxy)-N-(6-(2-((1E,3E)-4-(6-(methylamino)pyridin-3-yl)buta-1,3-dienyl)benzo[d]thiazol-6-yloxy)hexyl)acetamide], the “degradation” value in test [1] and in test [2] was “significantly degraded” in each case.

As for `CNc1ccc(/C=C/C=C/c2nc3ccc(OCCOCCOCCNC(=O)COc4cccc5c4C(=O)N(C4CCC(=O)NC4=O)C5=O)cc3s2)cn1` (stereo not drawn) [compound 4, 2-(2-(2,6-dioxopiperidin-3-yl)-1,3-dioxoisoindolin-4-yloxy)-N-(2-(2-(2-(2-((1E,3E)-4-(6-(methylamino)pyridin-3-yl)buta-1,3-dienyl)benzo[d]thiazol-6-yloxy)ethoxy)ethoxy)ethyl)acetamide], the “degradation” value in test [1] and in test [2] was “significantly degraded” throughout.
